# Measurements taken from PubChem BioAssay (NCI).
#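 Test compounds were applied to cells in 96-well plates for 48 hours at 5 doses. GI50 = concentration required for 50% inhibition of growth. At the TGI there is no net growth.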 Where a SMILES comes first, the peptide text is derived from it. The star is where a group is joined. Boc = CC(C)(C)OC(=O)*
# Columns and labels:
# Test in all cases: NCI tumour cell line growth inhibition, 48 h
# A549 NSCLC = test system: A549 NSCLC
# SF-295 CNS = test system: SF-295 CNS
# OVCAR-8 ovarian = test system: OVCAR-8 ovarian
# BT-549 breast = test system: BT-549 breast
# ACHN renal = test system: ACHN renal
# HCT-15 colon = test system: HCT-15 colon
# K-562 leukemia = test system: K-562 leukemia
# 786-0 renal = test system: 786-0 renal
# SK-OV-3 ovarian = test system: SK-OV-3 ovarian
# HL-60(TB) leukemia = test system: HL-60(TB) leukemia
# A498 renal = test system: A498 renal
# SF-539 CNS = test system: SF-539 CNS
# OVCAR-4 ovarian = test system: OVCAR-4 ovarian
# NCI/ADR-RES ovarian = test system: NCI/ADR-RES ovarian
# EKVX NSCLC = test system: EKVX NSCLC
# NCI-H460 lung = test system: NCI-H460 lung
# OVCAR-5 ovarian = test system: OVCAR-5 ovarian
# UACC-257 melanoma = test system: UACC-257 melanoma
# CCRF-CEM leukemia = test system: CCRF-CEM leukemia
# CAKI-1 renal = test system: CAKI-1 renal
# SR leukemia = test system: SR leukemia
# SF-268 CNS = test system: SF-268 CNS
# MDA-MB-231 breast = test system: MDA-MB-231 breast
# HS 578T breast = test system: HS 578T breast
# LOX IMVI melanoma = test system: LOX IMVI melanoma
# RXF 393 renal = test system: RXF 393 renal
# MALME-3M melanoma = test system: MALME-3M melanoma
# IGROV1 ovarian = test system: IGROV1 ovarian
# SN12C renal = test system: SN12C renal
# KM12 colon = test system: KM12 colon
# NCI-H522 lung = test system: NCI-H522 lung
# PC-3 prostate = test system: PC-3 prostate
# HT29 colon = test system: HT29 colon
# MOLT-4 leukemia = test system: MOLT-4 leukemia
# MCF7 breast = test system: MCF7 breast
# SW-620 colon = test system: SW-620 colon
# SK-MEL-5 melanoma = test system: SK-MEL-5 melanoma
# MDA-MB-435 = test system: MDA-MB-435
# SNB-19 CNS = test system: SNB-19 CNS
# U251 CNS = test system: U251 CNS
# M14 melanoma = test system: M14 melanoma
# T-47D breast = test system: T-47D breast
# HCT-116 colon = test system: HCT-116 colon
# NCI-H23 lung = test system: NCI-H23 lung
# SK-MEL-28 melanoma = test system: SK-MEL-28 melanoma
# DU-145 prostate = test system: DU-145 prostate
# RPMI-8226 leukemia = test system: RPMI-8226 leukemia
# HOP-62 NSCLC = test system: HOP-62 NSCLC
# COLO 205 colon = test system: COLO 205 colon
# UACC-62 melanoma = test system: UACC-62 melanoma
# UO-31 renal = test system: UO-31 renal
# HOP-92 NSCLC = test system: HOP-92 NSCLC
# TK-10 renal = test system: TK-10 renal
# OVCAR-3 ovarian = test system: OVCAR-3 ovarian
# HCC-2998 colon = test system: HCC-2998 colon
# NCI-H226 lung = test system: NCI-H226 lung
# SNB-75 CNS = test system: SNB-75 CNS
# SK-MEL-2 melanoma = test system: SK-MEL-2 melanoma
structure (smiles),measurement,setting,value
CC(C)(C)OC(=O)NCC(=O)NCC(=O)NCC(=O)NCC(=O)O (Boc-GGGG-OH),TGI,A549 NSCLC,> 100000 nM
same,TGI,SF-295 CNS,> 100000 nM
same,TGI,OVCAR-8 ovarian,> 100000 nM
same,TGI,BT-549 breast,> 100000 nM
same,TGI,ACHN renal,> 100000 nM
same,TGI,HCT-15 colon,> 100000 nM
same,TGI,K-562 leukemia,> 100000 nM
same,TGI,786-0 renal,> 100000 nM
same,TGI,SK-OV-3 ovarian,> 100000 nM
same,TGI,HL-60(TB) leukemia,> 100000 nM
same,TGI,A498 renal,> 100000 nM
same,TGI,SF-539 CNS,> 100000 nM
same,TGI,OVCAR-4 ovarian,> 100000 nM
same,TGI,NCI/ADR-RES ovarian,> 100000 nM
same,TGI,EKVX NSCLC,> 100000 nM
same,TGI,NCI-H460 lung,> 100000 nM
same,TGI,OVCAR-5 ovarian,> 100000 nM
same,TGI,UACC-257 melanoma,> 100000 nM
same,TGI,CCRF-CEM leukemia,> 100000 nM
same,TGI,CAKI-1 renal,> 100000 nM
same,TGI,SR leukemia,> 100000 nM
same,TGI,SF-268 CNS,> 100000 nM
same,TGI,MDA-MB-231 breast,> 100000 nM
same,TGI,HS 578T breast,> 100000 nM
same,TGI,LOX IMVI melanoma,> 100000 nM
same,TGI,RXF 393 renal,> 100000 nM
same,TGI,MALME-3M melanoma,> 100000 nM
same,TGI,IGROV1 ovarian,> 100000 nM
same,TGI,SN12C renal,> 100000 nM
same,TGI,KM12 colon,> 100000 nM
same,TGI,NCI-H522 lung,> 100000 nM
same,TGI,PC-3 prostate,> 100000 nM
same,TGI,HT29 colon,> 100000 nM
same,TGI,MOLT-4 leukemia,> 100000 nM
same,TGI,MCF7 breast,> 100000 nM
same,TGI,SW-620 colon,> 100000 nM
same,TGI,SK-MEL-5 melanoma,> 100000 nM
same,TGI,MDA-MB-435,> 100000 nM
same,TGI,SNB-19 CNS,> 100000 nM
same,TGI,U251 CNS,> 100000 nM
same,TGI,M14 melanoma,> 100000 nM
same,TGI,T-47D breast,> 100000 nM
same,TGI,HCT-116 colon,> 100000 nM
same,TGI,NCI-H23 lung,> 100000 nM
same,TGI,SK-MEL-28 melanoma,> 100000 nM
same,TGI,DU-145 prostate,> 100000 nM
same,TGI,RPMI-8226 leukemia,> 100000 nM
same,TGI,HOP-62 NSCLC,> 100000 nM
same,TGI,COLO 205 colon,> 100000 nM
same,TGI,UACC-62 melanoma,> 100000 nM
same,TGI,UO-31 renal,> 100000 nM
same,TGI,HOP-92 NSCLC,> 100000 nM
same,TGI,TK-10 renal,> 100000 nM
same,TGI,OVCAR-3 ovarian,> 100000 nM
same,TGI,HCC-2998 colon,> 100000 nM
O=C(c1ccc2ccccc2c1)c1c(C(F)(F)F)n([O-])c2ccc(Cl)cc2[n+]1=O,GI50,A549 NSCLC,1710 nM
same,TGI,A549 NSCLC,3210 nM
same,GI50,SF-295 CNS,1660 nM
same,TGI,SF-295 CNS,3080 nM
same,GI50,OVCAR-8 ovarian,1550 nM
same,TGI,OVCAR-8 ovarian,2910 nM
same,GI50,BT-549 breast,1600 nM
same,TGI,BT-549 breast,2990 nM
same,GI50,ACHN renal,1630 nM
same,TGI,ACHN renal,2980 nM
same,GI50,HCT-15 colon,1550 nM
same,TGI,HCT-15 colon,2940 nM
same,GI50,K-562 leukemia,1220 nM
same,TGI,K-562 leukemia,2650 nM
same,GI50,786-0 renal,1640 nM
same,TGI,786-0 renal,3090 nM
same,GI50,SK-OV-3 ovarian,1750 nM
same,TGI,SK-OV-3 ovarian,3130 nM
same,GI50,HL-60(TB) leukemia,1590 nM
same,TGI,HL-60(TB) leukemia,3290 nM
same,GI50,A498 renal,1720 nM
same,TGI,A498 renal,3110 nM
same,GI50,SF-539 CNS,1580 nM
same,TGI,SF-539 CNS,2920 nM
same,GI50,OVCAR-4 ovarian,1390 nM
same,TGI,OVCAR-4 ovarian,2720 nM
same,GI50,NCI-H226 lung,1820 nM
same,TGI,NCI-H226 lung,3560 nM
same,GI50,NCI/ADR-RES ovarian,1890 nM
same,TGI,NCI/ADR-RES ovarian,3860 nM
same,GI50,EKVX NSCLC,1740 nM
same,TGI,EKVX NSCLC,3170 nM
same,GI50,NCI-H460 lung,1750 nM
same,TGI,NCI-H460 lung,3340 nM
same,GI50,OVCAR-5 ovarian,1870 nM
same,TGI,OVCAR-5 ovarian,3580 nM
same,GI50,UACC-257 melanoma,1680 nM
same,TGI,UACC-257 melanoma,3130 nM
same,GI50,CAKI-1 renal,1630 nM
same,TGI,CAKI-1 renal,3010 nM
same,GI50,SR leukemia,438 nM
same,TGI,SR leukemia,1340 nM
same,GI50,SF-268 CNS,1040 nM
same,TGI,SF-268 CNS,2330 nM
same,GI50,MDA-MB-231 breast,1590 nM
same,TGI,MDA-MB-231 breast,3210 nM
same,GI50,HS 578T breast,1790 nM
same,TGI,HS 578T breast,3720 nM
same,GI50,LOX IMVI melanoma,195 nM
same,TGI,LOX IMVI melanoma,375 nM
same,GI50,RXF 393 renal,425 nM
same,TGI,RXF 393 renal,1400 nM
same,GI50,MALME-3M melanoma,1590 nM
same,TGI,MALME-3M melanoma,3200 nM
same,GI50,IGROV1 ovarian,334 nM
same,TGI,IGROV1 ovarian,1060 nM
same,GI50,SN12C renal,1690 nM
same,TGI,SN12C renal,3200 nM
same,GI50,KM12 colon,1080 nM
same,TGI,KM12 colon,2390 nM
same,GI50,NCI-H522 lung,1610 nM
same,TGI,NCI-H522 lung,3020 nM
same,GI50,HT29 colon,1520 nM
same,TGI,HT29 colon,2930 nM
same,GI50,MCF7 breast,417 nM
same,TGI,MCF7 breast,1430 nM
same,GI50,SW-620 colon,1410 nM
same,TGI,SW-620 colon,2700 nM
same,GI50,SK-MEL-5 melanoma,1360 nM
same,TGI,SK-MEL-5 melanoma,2650 nM
same,GI50,MDA-MB-435,1660 nM
same,TGI,MDA-MB-435,3170 nM
same,GI50,SNB-19 CNS,1690 nM
same,TGI,SNB-19 CNS,3070 nM
same,GI50,U251 CNS,1670 nM
same,TGI,U251 CNS,3030 nM
same,GI50,M14 melanoma,1640 nM
same,TGI,M14 melanoma,3050 nM
same,GI50,T-47D breast,453 nM
same,TGI,T-47D breast,1780 nM
same,GI50,HCT-116 colon,1000 nM
same,TGI,HCT-116 colon,2330 nM
same,GI50,SK-MEL-28 melanoma,1630 nM
same,TGI,SK-MEL-28 melanoma,3020 nM
same,GI50,DU-145 prostate,1470 nM
same,TGI,DU-145 prostate,2790 nM
same,GI50,RPMI-8226 leukemia,373 nM
same,TGI,RPMI-8226 leukemia,1660 nM
same,GI50,HOP-62 NSCLC,1860 nM
same,TGI,HOP-62 NSCLC,3460 nM
same,GI50,COLO 205 colon,1340 nM
same,TGI,COLO 205 colon,2730 nM
same,GI50,UACC-62 melanoma,1710 nM
same,TGI,UACC-62 melanoma,3080 nM
same,GI50,UO-31 renal,1290 nM
same,TGI,UO-31 renal,2550 nM
same,GI50,SNB-75 CNS,1300 nM
same,TGI,SNB-75 CNS,2570 nM
same,GI50,HOP-92 NSCLC,518 nM
same,TGI,HOP-92 NSCLC,2030 nM
same,GI50,SK-MEL-2 melanoma,1740 nM
same,TGI,SK-MEL-2 melanoma,3200 nM
same,GI50,TK-10 renal,1810 nM
same,TGI,TK-10 renal,3350 nM
same,GI50,OVCAR-3 ovarian,1320 nM
same,TGI,OVCAR-3 ovarian,2620 nM
same,GI50,HCC-2998 colon,1260 nM
same,TGI,HCC-2998 colon,2600 nM
CC1=C2C(=O)c3ccccc3C2=C(C)S(=O)(=O)O1,TGI,A549 NSCLC,> 10000 nM
same,TGI,ACHN renal,> 10000 nM
same,TGI,K-562 leukemia,> 10000 nM
same,TGI,786-0 renal,> 10000 nM
same,TGI,SK-OV-3 ovarian,> 10000 nM
same,TGI,HL-60(TB) leukemia,> 10000 nM
same,TGI,OVCAR-4 ovarian,> 10000 nM
same,TGI,NCI/ADR-RES ovarian,> 10000 nM
same,TGI,NCI-H460 lung,> 10000 nM
same,TGI,OVCAR-5 ovarian,> 10000 nM
same,TGI,CCRF-CEM leukemia,> 10000 nM
same,TGI,CAKI-1 renal,> 10000 nM
same,TGI,SR leukemia,> 10000 nM
same,TGI,SF-268 CNS,> 10000 nM
same,TGI,RXF 393 renal,> 10000 nM
same,TGI,MALME-3M melanoma,> 10000 nM
same,TGI,IGROV1 ovarian,> 10000 nM
same,TGI,MOLT-4 leukemia,> 10000 nM
same,TGI,MCF7 breast,> 10000 nM
same,TGI,SW-620 colon,> 10000 nM
same,TGI,SK-MEL-5 melanoma,> 10000 nM
same,TGI,MDA-MB-435,> 10000 nM
same,TGI,U251 CNS,> 10000 nM
same,TGI,M14 melanoma,> 10000 nM
same,TGI,T-47D breast,> 10000 nM
same,TGI,NCI-H23 lung,> 10000 nM
same,TGI,SK-MEL-28 melanoma,> 10000 nM
same,TGI,RPMI-8226 leukemia,> 10000 nM
same,TGI,HOP-62 NSCLC,> 10000 nM
same,TGI,COLO 205 colon,> 10000 nM
same,TGI,UACC-62 melanoma,> 10000 nM
same,TGI,SNB-75 CNS,> 10000 nM
same,TGI,SK-MEL-2 melanoma,> 10000 nM
